Measurements from patent US20150291598A1 (NOVARTIS AG, priority 2012, published 2015).

test system: P. falciparum (NF54 or 3D7 strain); experiment: Assay for P. falciparum proliferation in infected human blood cells (SYBR Green); type: cell-based, Plasmodium falciparum; conditions: Plasmodium falciparum, Erythrocyte, 72 h, NF54 or 3D7 infected human erythrocytes, 72 hours; read-out: EC50 (nM), inhibitory efficacy in delaying P. falciparum proliferation in infected human blood cells
How it was run: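 NF54 or 3D7 parasites in O+ human erythrocytes at 2.5% hematocrit and 0.3% parasitemia final, exposed to compounds 72 h at 37 °C under 93% N2/4% CO2/3% O2.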

| EC50 [nM] | Structure (SMILES) |
| --- | --- |
| 2700 | CN(C(=O)c1cn2c(-c3ccc(OC(F)F)cc3)cnc2cn1)c1ccc(S(C)(=O)=O)cc1 [Compound 209, 3-[4-(difluoromethoxy)phenyl]-N-(4-methanesulfonylphenyl)-N-methylimidazo[1,2-a]pyrazine-6-carboxamide] |
| 1980 | NC(=O)c1ccc(-c2cn3c(-c4ccc(C(N)=O)cc4)cnc3cn2)cc1 [Compound 210, 4-[3-(4-carbamoylphenyl)imidazo[1,2-a]pyrazin-6-yl]benzamide] |
| 9390 | CN(C(=O)c1cn2c(-c3cnc(N4CCCC4=O)cn3)cnc2cn1)c1ccc(C#N)cc1 [Compound 211, N-(4-cyanophenyl)-N-methyl-3-[5-(2-oxopyrrolidin-1-yl)pyrazin-2-yl]imidazo[1,2-a]pyrazine-6-carboxamide] |
| 137 | CN(C(=O)c1cn2c(-c3ccc(NC(=O)[C@@H](N)C4CCCCC4)cc3)cnc2cn1)c1ccc(C#N)cc1 [Compound 212, 3-{4-[(2S)-2-amino-2-cyclohexylacetamido]phenyl}-N-(4-cyanophenyl)-N-methylimidazo[1,2-a]pyrazine-6-carboxamide] |
| 31 | CN(C(=O)c1cn2c(-c3ccc(OC(F)F)cc3)cnc2cn1)c1ccc(C#N)cc1 [Compound 214, N-(4-cyanophenyl)-3-[4-(difluoromethoxy)phenyl]-N-methylimidazo[1,2-a]pyrazine-6-carboxamide] |
| 86 | CN(C(=O)c1cn2c(-c3ccc(C(F)(F)F)cc3)cnc2cn1)c1ccc(Br)cc1 [Compound 215, N-(4-bromophenyl)-N-methyl-3-[4-(trifluoromethyl)phenyl]imidazo[1,2-a]pyrazine-6-carboxamide] |
| 5710 | CN(C(=O)c1cn2c(-c3ccc(N4CCCCC4)cc3)cnc2cn1)c1ccc(Cl)nc1 [Compound 216, N-(6-chloropyridin-3-yl)-N-methyl-3-[4-(piperidin-1-yl)phenyl]imidazo[1,2-a]pyrazine-6-carboxamide] |
| 36 | CN(C(=O)c1cn2c(-c3ccc(C(F)(F)F)cc3)cnc2cn1)c1ccc(Cl)cc1 [Compound 217, N-(4-chlorophenyl)-N-methyl-3-[4-(trifluoromethyl)phenyl]imidazo[1,2-a]pyrazine-6-carboxamide] |
| 680 | O=C(c1cn2c(-c3ccc(C(F)(F)F)cc3)cnc2cn1)N1CCCc2cc(Cl)ccc21 [Compound 218, 6-chloro-1-({3-[4-(trifluoromethyl)phenyl]imidazo[1,2-a]pyrazin-6-yl}carbonyl)-1,2,3,4-tetrahydroquinoline] |
| 63 | COc1ccc(-c2cnc3cnc(C(=O)N(C)c4ccc(Cl)cc4)cn23)cc1 [Compound 219, N-(4-chlorophenyl)-3-(4-methoxyphenyl)-N-methylimidazo[1,2-a]pyrazine-6-carboxamide] |
| 4040 | Cc1cnc(Cl)c(N(C)C(=O)c2cn3c(-c4ccc(C(F)(F)F)cc4)cnc3cn2)c1 [Compound 220, N-(2-chloro-5-methylpyridin-3-yl)-N-methyl-3-[4-(trifluoromethyl)phenyl]imidazo[1,2-a]pyrazine-6-carboxamide] |
| 4970 | CN(C(=O)c1cn2c(-c3ccc(C(F)(F)F)cc3)cnc2cn1)c1ncccc1F [Compound 221, N-(3-fluoropyridin-2-yl)-N-methyl-3-[4-(trifluoromethyl)phenyl]imidazo[1,2-a]pyrazine-6-carboxamide] |
| 149 | CN(C(=O)c1cn2c(-c3ccc(-c4ccn[nH]4)cc3)cnc2cn1)c1ccc(Cl)nc1 [Compound 224, N-(6-chloropyridin-3-yl)-N-methyl-3-[4-(1H-pyrazol-5-yl)phenyl]imidazo[1,2-a]pyrazine-6-carboxamide] |
| 37 | COC(=O)Nc1ccc(-c2cnc3cnc(CN(C)c4ccc(C#N)cc4)cn23)cc1 [Compound 225, methyl N-[4-(6-{[(4-cyanophenyl)(methyl)amino]methyl}imidazo[1,2-a]pyrazin-3-yl)phenyl]carbamat] |
| 37 | CC(=O)Nc1ccc(-c2cnc3cnc(CN(C)c4ccc(C#N)cc4)cn23)cn1 [Compound 226, N-[5-(6-{[(4-cyanophenyl)(methyl)amino]methyl}imidazo[1,2-a]pyrazin-3-yl)pyridin-2-yl]acetamide] |
| 40 | CN(C(=O)c1cn2c(-c3ccc(-c4nnc(N)o4)cc3)cnc2cn1)c1ccc(F)cc1 [Compound 227, 3-[4-(5-amino-1,3,4-oxadiazol-2-yl)phenyl]-N-(4-fluorophenyl)-N-methylimidazo[1,2-a]pyrazine-6-carboxamide] |
| 19 | CC1(C)CCc2cc(F)ccc2N1C(=O)c1cn2c(-c3ccc(C(N)=O)cc3)cnc2cn1 [Compound 229, 4-{6-[(6-fluoro-2,2-dimethyl-1,2,3,4-tetrahydroquinolin-1-yl)carbonyl]imidazo[1,2-a]pyrazin-3-yl}benzamide] |
| 21 | CC1(C)CCc2cc(F)ccc2N1C(=O)c1cn2c(-c3ccc(C(F)(F)F)cc3)cnc2cn1 [Compound 230, 6-fluoro-2,2-dimethyl-1-({3-[4-(trifluoromethyl)phenyl]imidazo[1,2-a]pyrazin-6-yl}carbonyl)-1,2,3,4-tetrahydroquinoline] |

| EC50 [nM] | Structure (SMILES) |
| --- | --- |
| 74 | CN(Cc1cn2c(-c3ccc(C(F)(F)F)cc3)cnc2cn1)c1ccc(Cl)nc1 [Compound 231, 6-chloro-N-methyl-N-({3-[4-(trifluoromethyl)phenyl]imidazo[1,2-a]pyrazin-6-yl}methyl)pyridin-3-amine] |
| 3990 | CN(C(=O)c1cn2c(-c3ccc(C#N)cc3)cnc2cn1)c1ccc(S(C)(=O)=O)cc1 [Compound 232, 3-(4-cyanophenyl)-N-(4-methanesulfonylphenyl)-N-methylimidazo[1,2-a]pyrazine-6-carboxamide] |
| 138 | Cc1ccc(N(C)Cc2cn3c(-c4ccc(C(N)=O)cc4)cnc3cn2)nc1 [Compound 233, 4-(6-{[methyl(5-methylpyridin-2-yl)amino]methyl}imidazo[1,2-a]pyrazin-3-yl)benzamide] |
| 148 | Fc1ccc2c(c1)CCCN2Cc1cn2c(-c3ccc(C(F)(F)F)cc3)cnc2cn1 [Compound 234, 6-fluoro-1-({3-[4-(trifluoromethyl)phenyl]imidazo[1,2-a]pyrazin-6-yl}methyl)-1,2,3,4-tetrahydroquinoline] |
| 100 | CN(C(=O)c1cn2c(-c3ccc(C(C)(F)F)cc3)cnc2cn1)c1ccc(Cl)nc1 [Compound 237, N-(6-chloropyridin-3-yl)-3-[4-(1,1-difluoroethyl)phenyl]-N-methylimidazo[1,2-a]pyrazine-6-carboxamide] |
| 152 | COCCN(C(=O)c1cn2c(-c3ccc(C(F)(F)F)cc3)cnc2cn1)c1ccc(C#N)cc1 [Compound 238, N-(4-cyanophenyl)-N-(2-methoxyethyl)-3-[4-(trifluoromethyl)phenyl]imidazo[1,2-a]pyrazine-6-carboxamide] |
| 6880 | CN(C(=O)c1cn2c(-c3ccc(C(F)(F)F)cc3)cnc2cn1)c1ccc(C(F)(F)F)nc1 [Compound 239, N-methyl-3-[4-(trifluoromethyl)phenyl]-N-[6-(trifluoromethyl)pyridin-3-yl]imidazo[1,2-a]pyrazine-6-carboxamide] |
| 112 | CN(C(=O)c1cn2c(-c3ccc(-c4nnco4)cc3)cnc2cn1)c1ccc(C#N)cc1 [Compound 240, N-(4-cyanophenyl)-N-methyl-3-[4-(1,3,4-oxadiazol-2-yl)phenyl]imidazo[1,2-a]pyrazine-6-carboxamide] |
| 262 | Cc1ccc(N(C)Cc2cn3c(-c4ccc(C(F)F)cc4)cnc3cn2)nc1 [Compound 241, N-({3-[4-(difluoromethyl)phenyl]imidazo[1,2-a]pyrazin-6-yl}methyl)-N,5-dimethylpyridin-2-amine] |
| 215 | CC(=O)Nc1ccc(-c2cnc3cnc(CN(C)c4ccc(C)cn4)cn23)cn1 [Compound 242, N-[5-(6-{[methyl(5-methylpyridin-2-yl)amino]methyl}imidazo[1,2-a]pyrazin-3-yl)pyridin-2-yl]acetamide] |
| 98 | CN(C(=O)c1cn2c(-c3cnc4[nH]ccc4c3)cnc2cn1)c1ccc(C#N)cc1 [Compound 243, N-(4-cyanophenyl)-N-methyl-3-{1H-pyrrolo[2,3-b]pyridin-5-yl}imidazo[1,2-a]pyrazine-6-carboxamide] |
| 290 | CNC(=O)c1ccc(-c2cnc3cnc(C(=O)N(C)c4ccc(F)cc4)cn23)cc1 [Compound 244, N-(4-fluorophenyl)-N-methyl-3-[4-(methylcarbamoyl)phenyl]imidazo[1,2-a]pyrazine-6-carboxamide] |
| 226 | COC(=O)Nc1ccc(-c2cnc3cnc(C(=O)N(C)c4ccc(Cl)nc4)cn23)cc1 [Compound 245, methyl N-(4-{6-[(6-chloropyridin-3-yl)(methyl)carbamoyl]imidazo[1,2-a]pyrazin-3-yl}phenyl)carbamate] |
| 310 | CNc1ccc(-c2cnc3cnc(C(=O)N(C)c4ccc(C#N)cc4)cn23)cn1 [Compound 246, N-(4-cyanophenyl)-N-methyl-3-[6-(methylamino)pyridin-3-yl]imidazo[1,2-a]pyrazine-6-carboxamide] |
| 611 | CN(C(=O)c1cn2c(-c3ccc(NC(=O)CN)cc3)cnc2cn1)c1ccc(C#N)cc1 [Compound 247, 3-[4-(2-aminoacetamido)phenyl]-N-(4-cyanophenyl)-N-methylimidazo[1,2-a]pyrazine-6-carboxamide] |
| 87 | CN(C(=O)c1cn2c(-c3ccc(-c4nnc(N)o4)cc3)cnc2cn1)c1ccc(C#N)cc1 [Compound 248, 3-[4-(5-amino-1,3,4-oxadiazol-2-yl)phenyl]-N-(4-cyanophenyl)-N-methylimidazo[1,2-a]pyrazine-6-carboxamide] |
| 635 | CN(C(=O)c1cn2c(-c3ccc(C(F)(F)F)cc3)cnc2cn1)c1ccncc1 [Compound 249, N-methyl-N-(pyridin-4-yl)-3-[4-(trifluoromethyl)phenyl]imidazo[1,2-a]pyrazine-6-carboxamide] |
